Assay results taken from PubChem BioAssay (NCI).
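Growth conditions: 96-well plates. Treatment: test compound, 48 hours, 5 concentrations. Analysis: linear interpolation between bracketing concentrations; unreached endpoints set to highest concentration. GI50 is the concentration that inhibits growth by half. TGI denotes the concentration required for complete inhibition of growth.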

Tests used:
Assay in all cases: growth of human tumour cells (NCI), 48 h
[1] = tested on: RXF 393 renal
[2] = tested on: RPMI-8226 leukemia
[3] = tested on: A498 renal
[4] = tested on: UACC-257 melanoma
[5] = tested on: 786-0 renal
[6] = tested on: SW-620 colon
[7] = tested on: SF-539 CNS
[8] = tested on: OVCAR-3 ovarian
[9] = tested on: MALME-3M melanoma
[10] = tested on: NCI/ADR-RES ovarian

`COc1ccc(C(=O)C(C(=O)CC(=O)Nc2cccc(C(F)(F)F)c2)c2ccc(OC)cc2)cc1` (configuration not stated) showed a TGI [1] greater than 100 µM, a TGI [2] greater than 100 µM and a TGI [3] greater than 100 µM. For the same molecule, the TGI [4] was greater than 100 µM, the TGI [5] was greater than 100 µM and the TGI [6] was greater than 100 µM. For the same molecule, the TGI [7] was greater than 100 µM, the TGI [8] was greater than 100 µM and the TGI [9] was greater than 100 µM.

For `CCOC(=O)Cc1ccc2c(c1O)C(=O)c1c(ccc(CC(=O)OCC)c1O)C2=O`, the TGI [1] was greater than 100 µM, the TGI [2] was greater than 100 µM and the TGI [3] was greater than 100 µM. The TGI [4] was greater than 100 µM, the TGI [5] was greater than 100 µM and the TGI [6] was greater than 100 µM. It also gave a TGI [7] greater than 100 µM, a TGI [8] greater than 100 µM and a TGI [9] greater than 100 µM.

For `Cc1cc(-c2nc3sccn3c2/C=N/N=C(N)N)c(C)s1`, the GI50 [2] was 13.3 µM, the TGI [2] was 33.2 µM and the GI50 [3] was 18.8 µM. The TGI [3] was 33.9 µM, the GI50 [10] was 17.4 µM and the TGI [10] was 31.6 µM. The GI50 [4] was 18.9 µM, the TGI [4] was 36.2 µM and the GI50 [5] was 15.7 µM. The TGI [5] was 29.1 µM, the GI50 [6] was 21.8 µM and the TGI [6] was 54.5 µM. It also gave a GI50 [7] of 14.3 µM, a TGI [7] of 28.5 µM and a GI50 [8] of 13.2 µM. The TGI [8] was 26 µM.

`CC(=Nc1ccccc1)C1=C(O)C(Cc2ccc(O)cc2)NC1=O` (configuration not stated) showed a GI50 [2] of 0.169 µM, a TGI [2] greater than 100 µM and a GI50 [3] of 0.255 µM. It also gave a GI50 [10] of 0.0572 µM, a TGI [10] of 0.793 µM and a GI50 [4] greater than 100 µM. For the same molecule, the TGI [4] was greater than 100 µM, the GI50 [5] was 0.505 µM and the TGI [5] was greater than 100 µM. For the same molecule, the GI50 [6] was 0.0485 µM, the TGI [6] was greater than 100 µM and the GI50 [7] was 0.129 µM. It also gave a TGI [7] of 0.703 µM, a GI50 [8] of 0.0258 µM and a TGI [8] of 0.072 µM. The GI50 [9] was 0.0477 µM and the TGI [9] was greater than 100 µM.

Work on `O=C(O)c1ccc(Oc2nccc(-c3c(-c4ccc(F)cc4)ncn3C3CCNCC3)n2)cc1` yielded a GI50 [1] greater than 25 µM, a TGI [1] greater than 25 µM and a GI50 [2] greater than 25 µM. For the same molecule, the TGI [2] was greater than 25 µM, the GI50 [3] was greater than 25 µM and the TGI [3] was greater than 25 µM. It also gave a GI50 [10] greater than 25 µM, a TGI [10] greater than 25 µM and a GI50 [5] greater than 25 µM. The TGI [5] was greater than 25 µM, the GI50 [6] was greater than 25 µM and the TGI [6] was greater than 25 µM. For the same molecule, the GI50 [7] was greater than 25 µM, the TGI [7] was greater than 25 µM and the GI50 [8] was greater than 25 µM. For the same molecule, the TGI [8] was greater than 25 µM, the GI50 [9] was greater than 25 µM and the TGI [9] was greater than 25 µM.

Work on `N#CC1=C(N)Oc2c(ccc3ccccc23)C1c1ccccc1` (configuration not stated) yielded a GI50 [2] of 0.0417 µM, a TGI [2] of 15 µM and a GI50 [3] of 0.0185 µM. For the same molecule, the TGI [3] was 0.0809 µM, the GI50 [10] was 0.0274 µM and the TGI [10] was 1.68 µM. It also gave a GI50 [4] of 11.9 µM, a TGI [4] of 29.9 µM and a GI50 [5] of 0.0503 µM. It also gave a TGI [5] of 13 µM, a GI50 [6] of 0.0388 µM and a TGI [6] of 18.6 µM. For the same molecule, the GI50 [7] was 0.0311 µM, the TGI [7] was 0.158 µM and the GI50 [8] was 0.0357 µM. It also gave a TGI [8] of 2.2 µM.

`O=C(c1ccccc1)c1c(-c2ccccc2)sc2nc3ccccc3nc12` gave a TGI [1] greater than 100 µM, a TGI [2] greater than 100 µM and a TGI [3] greater than 100 µM. For the same molecule, the TGI [4] was greater than 100 µM, the TGI [5] was greater than 100 µM and the TGI [6] was greater than 100 µM. It also gave a TGI [7] greater than 100 µM, a TGI [8] greater than 100 µM and a TGI [9] greater than 100 µM.

For `C=C1C(=O)OC2C1CCC(C)C1C=CC(=O)C12C` (configuration not stated), the TGI [1] was 4.39 µM, the TGI [2] was greater than 25.3 µM and the TGI [3] was 26.7 µM. The TGI [4] was 4.61 µM, the TGI [5] was 4.19 µM and the TGI [6] was 4.68 µM. It also gave a TGI [7] of 8.33 µM, a TGI [8] of 3.37 µM and a TGI [9] of 7.47 µM.

`COC(=O)CC[C@]1(C)O[C@H]2[C@H]([C@@H](C)CCCC(C)=O)OC(=O)[C@@H]2C[C@H]1O` showed a GI50 [1] of 60.1 µM, a TGI [1] greater than 100 µM and a GI50 [2] greater than 100 µM. It also gave a TGI [2] greater than 100 µM, a GI50 [10] greater than 100 µM and a TGI [10] greater than 100 µM. It also gave a GI50 [4] of 44.9 µM, a TGI [4] greater than 100 µM and a GI50 [5] greater than 100 µM. It also gave a TGI [5] greater than 100 µM, a GI50 [6] greater than 100 µM and a TGI [6] greater than 100 µM. It also gave a GI50 [7] of 84.9 µM, a TGI [7] greater than 100 µM and a GI50 [8] of 31.5 µM. It also gave a TGI [8] greater than 100 µM.

For `O=S(=O)(NCCCNc1nccc(-c2c(-c3ccc(F)c(O)c3)nc3sccn23)n1)c1ccc(F)cc1`, the GI50 [1] was 1.53 µM, the TGI [1] was 4.68 µM and the GI50 [3] was 2.86 µM. It also gave a TGI [3] of 6.81 µM, a GI50 [10] of 3.44 µM and a TGI [10] of 28 µM. For the same molecule, the GI50 [4] was 0.262 µM, the TGI [4] was 2.19 µM and the GI50 [5] was 3.35 µM. For the same molecule, the TGI [5] was greater than 100 µM, the GI50 [6] was 3.9 µM and the TGI [6] was greater than 100 µM. The GI50 [7] was 3.5 µM, the TGI [7] was 17.4 µM and the GI50 [9] was 0.0316 µM. It also gave a TGI [9] of 1.01 µM.

In the case of `NC[C@H]1Nc2ccccc2[C@@H](O)C1O` (some centres not stated), the TGI [1] is reported as greater than 100 µM, the TGI [2] is reported as greater than 100 µM and the TGI [10] is reported as greater than 100 µM. For the same molecule, the TGI [4] was greater than 100 µM, the TGI [5] was greater than 100 µM and the TGI [6] was greater than 100 µM. For the same molecule, the TGI [7] was greater than 100 µM, the TGI [8] was greater than 100 µM and the TGI [9] was greater than 100 µM.

Work on `COc1ccccc1C(O)(c1ccccc1)C(O)(c1ccccc1)c1ccccc1OC` (configuration not stated) yielded a TGI [1] greater than 100 µM, a TGI [2] greater than 100 µM and a TGI [3] greater than 100 µM. It also gave a TGI [4] greater than 100 µM, a TGI [5] greater than 100 µM and a TGI [6] greater than 100 µM. For the same molecule, the TGI [7] was greater than 100 µM, the TGI [8] was greater than 100 µM and the TGI [9] was greater than 100 µM.

For `C=C1C(C2(C)C(OC(C)=O)CC(=O)OC(C)(COC(C)=O)C2CC(=O)OC)C(OC=O)C(OC(=O)C(O)C(C)CC)C2(C)C(c3ccoc3)CC(=O)C12O` (configuration not stated), the TGI [1] was 6.48 µM, the TGI [2] was greater than 100 µM and the TGI [3] was greater than 29.3 µM. It also gave a TGI [10] greater than 100 µM, a TGI [4] greater than 100 µM and a TGI [5] greater than 100 µM. It also gave a TGI [6] greater than 100 µM, a TGI [7] greater than 31.6 µM and a TGI [8] greater than 100 µM.

`CCN(CC)CCCNC(=O)C1COc2cc(-c3cc(=O)c4ccccc4o3)ccc2O1` (configuration not stated) was tested, and the TGI [1] was greater than 100 µM, the TGI [2] was greater than 100 µM and the TGI [3] was greater than 100 µM. It also gave a TGI [4] of 50.1 µM, a TGI [5] greater than 100 µM and a TGI [6] greater than 100 µM. The TGI [7] was 38.9 µM, the TGI [8] was greater than 100 µM and the TGI [9] was 36.8 µM.

For `CC1=C[C@]2(O)C(=O)[C@H](C)C[C@H]3[C@@H](CC[C@@](C)(O)/C=C\2C1=O)C3(C)C`, the TGI [1] was 19.8 µM, the TGI [2] was greater than 73.3 µM and the TGI [3] was 47.2 µM. It also gave a TGI [4] of 35.7 µM, a TGI [5] of 39.5 µM and a TGI [6] of 35.9 µM. For the same molecule, the TGI [7] was 46.8 µM, the TGI [8] was 38.1 µM and the TGI [9] was 54.4 µM.

Work on `CCOc1ccc(N=Cc2ccc3cc(C)ccc3n2)cc1` yielded a TGI [1] greater than 100 µM, a TGI [2] of 57.3 µM and a TGI [3] greater than 100 µM. It also gave a TGI [4] greater than 100 µM, a TGI [5] greater than 100 µM and a TGI [6] greater than 100 µM. For the same molecule, the TGI [7] was greater than 100 µM, the TGI [8] was greater than 100 µM and the TGI [9] was greater than 100 µM.

Molecule `C=C(NC(=O)C(=C)NC(=O)c1csc(C2=NC3c4csc(n4)C4NC(=O)c5csc(n5)C(C(C)(O)C(C)O)NC(=O)C5CSC(=N5)C(=CC)NC(=O)C(C(C)O)NC(=O)c5csc(n5)C3(CC2)NC(=O)C(C)NC(=O)C(=C)NC(=O)C(C)NC(=O)C(C(C)CC)NC2C=Cc3c(C(C)O)cc(nc3C2O)C(=O)OC4C)n1)C(N)=O` (configuration not stated) has a GI50 [1] of 2.44 µM, a TGI [1] of 7.88 µM and a GI50 [2] of 1.79 µM. For the same molecule, the TGI [2] was 19.7 µM, the GI50 [10] was greater than 100 µM and the TGI [10] was greater than 100 µM. It also gave a GI50 [4] of 29.4 µM, a TGI [4] greater than 100 µM and a GI50 [5] of 5.49 µM. It also gave a TGI [5] of 19.7 µM, a GI50 [6] of 2.73 µM and a TGI [6] greater than 100 µM. It also gave a GI50 [7] of 4.62 µM, a TGI [7] of 42.9 µM and a GI50 [8] of 6.59 µM. The TGI [8] was greater than 100 µM, the GI50 [9] was 3.14 µM and the TGI [9] was greater than 100 µM.
